# Molecular target: T1, HGFR (Homo sapiens, UniProt P08581)
# T1 construct: purchased Upstate 14-526
# Assay: HGFR continuous-coupled spectrophotometric assay
# Assay type: biochemical
# Details: at 1 pM; Table 7, library procedure 42; read-out: % Inhibition (percent c-MET inhibition)
# T1 sequence (P08581 974-1390 limits assumed): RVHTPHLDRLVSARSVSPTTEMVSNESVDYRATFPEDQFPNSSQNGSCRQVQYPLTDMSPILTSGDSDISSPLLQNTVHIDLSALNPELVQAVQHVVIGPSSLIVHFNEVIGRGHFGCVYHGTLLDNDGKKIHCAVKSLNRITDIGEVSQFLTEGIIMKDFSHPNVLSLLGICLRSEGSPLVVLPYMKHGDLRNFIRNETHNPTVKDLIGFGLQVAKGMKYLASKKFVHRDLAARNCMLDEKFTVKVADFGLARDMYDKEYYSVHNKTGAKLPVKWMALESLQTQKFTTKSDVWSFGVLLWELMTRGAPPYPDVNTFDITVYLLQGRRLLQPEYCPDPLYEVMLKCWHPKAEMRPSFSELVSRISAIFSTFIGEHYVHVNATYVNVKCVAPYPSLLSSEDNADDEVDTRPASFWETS
row,inhibition at 1 pM,SMILES
1,10%,Cc1noc(C)c1COc1cc(-c2ccc(C(=O)N3CCC(N4CCCC4)CC3)cc2)cnc1N
2,19%,Nc1ncc(-c2ccc(C(=O)N3CCC(N4CCCC4)CC3)cc2)cc1OCc1ccc(Cl)s1
3,10%,Nc1ncc(-c2ccc(C(=O)N3CCC(N4CCCC4)CC3)cc2)cc1OCc1ccncc1
4,49%,Nc1ncc(-c2ccc(C(=O)N3CCC(N4CCCC4)CC3)cc2)cc1OCc1ccc(OCc2ccccc2)cc1
5,19%,COc1ccc(OC)c(COc2cc(-c3ccc(C(=O)N4CCC(N5CCCC5)CC4)cc3)cnc2N)c1
6,5%,Nc1ncc(-c2ccc(C(=O)N3CCC(N4CCCC4)CC3)cc2)cc1OCc1nsc(Cl)n1
7,19%,Nc1ncc(-c2ccc(C(=O)N3CCC(N4CCCC4)CC3)cc2)cc1OCC1=C(Cl)SNN1
8,5%,Cn1nc(-c2ccccc2)nc1COc1cc(-c2ccc(C(=O)N3CCC(N4CCCC4)CC3)cc2)cnc1N
9,5%,Cn1nc(C2CC2)nc1COc1cc(-c2ccc(C(=O)N3CCC(N4CCCC4)CC3)cc2)cnc1N
10,10%,Cc1ccnc2nc(COc3cc(-c4ccc(C(=O)N5CCC(N6CCCC6)CC5)cc4)cnc3N)cn12
11,9%,Nc1ncc(-c2ccc(C(=O)N3CCC(N4CCCC4)CC3)cc2)cc1OCc1ncccn1
12,9%,CCc1ccn2cc(COc3cc(-c4ccc(C(=O)N5CCC(N6CCCC6)CC5)cc4)cnc3N)nc2c1
13,9%,Nc1nc(COc2cc(-c3ccc(C(=O)N4CCC(N5CCCC5)CC4)cc3)cnc2N)nc(Nc2ccccc2)n1
14,8%,Nc1ncc(-c2ccc(C(=O)N3CCC(N4CCCC4)CC3)cc2)cc1OCc1nccn1Cc1ccccc1
15,8%,N#Cc1ccc(COc2cc(-c3ccc(C(=O)N4CCC(N5CCCC5)CC4)cc3)cnc2N)cc1
16,27%,Nc1ncc(-c2ccc(C(=O)N3CCC(N4CCCC4)CC3)cc2)cc1OCc1ccc2ccccc2c1

row,inhibition at 1 pM,SMILES
1,12%,N#Cc1cccc(COc2cc(-c3ccc(C(=O)N4CCC(N5CCCC5)CC4)cc3)cnc2N)c1
2,18%,Nc1ncc(-c2ccc(C(=O)N3CCC(N4CCCC4)CC3)cc2)cc1OCc1ccc(F)cc1F
3,4%,Nc1ncc(-c2ccc(C(=O)N3CCC(N4CCCC4)CC3)cc2)cc1OCc1nc2ccccc2[nH]1
4,16%,Nc1ncc(-c2ccc(C(=O)N3CCC(N4CCCC4)CC3)cc2)cc1OCc1noc(-c2ccccc2)n1
5,12%,CC(C)Cc1noc(COc2cc(-c3ccc(C(=O)N4CCC(N5CCCC5)CC4)cc3)cnc2N)n1
6,-2%,Nc1ncc(-c2ccc(C(=O)N3CCC(N4CCCC4)CC3)cc2)cc1OCc1nc(-c2ccccc2)n[nH]1
7,28%,Nc1ncc(-c2ccc(C(=O)N3CCC(N4CCCC4)CC3)cc2)cc1OCc1ccc(Cl)cc1Br
8,11%,Cc1cnccc1COc1cc(-c2ccc(C(=O)N3CCC(N4CCCC4)CC3)cc2)cnc1N
9,5%,CCc1nc(COc2cc(-c3ccc(C(=O)N4CCC(N5CCCC5)CC4)cc3)cnc2N)no1
10,6%,Nc1ncc(-c2ccc(C(=O)N3CCC(N4CCCC4)CC3)cc2)cc1OCc1nc(NC2CC2)c2ccccc2n1
11,7%,Nc1ncc(-c2ccc(C(=O)N3CCC(N4CCCC4)CC3)cc2)cc1OCc1nc(NCCO)c2ccccc2n1
12,8%,CCOC(=O)c1nc(COc2cc(-c3ccc(C(=O)N4CCC(N5CCCC5)CC4)cc3)cnc2N)no1
13,11%,CNC(=O)c1ccc(OC)c(-c2noc(COc3cc(-c4ccc(C(=O)N5CCC(N6CCCC6)CC5)cc4)cnc3N)n2)c1
14,11%,Nc1ncc(-c2ccc(C(=O)N3CCC(N4CCCC4)CC3)cc2)cc1OCc1nc(-c2ccc(C(=O)N3CCCC3)cc2)no1
15,64%,Nc1ncc(-c2ccc(C(=O)N3CCC(N4CCCC4)CC3)cc2)cc1OCc1nc(-c2cccc(C(=O)Nc3ccc(F)cc3)c2)no1
16,18%,CC(C)NC(=O)c1ccc(-c2noc(COc3cc(-c4ccc(C(=O)N5CCC(N6CCCC6)CC5)cc4)cnc3N)n2)cc1

# Same assay, conditions: at 1 μM; Table 8, library procedure 43; read-out: % Inhibition (percent c-MET inhibition)
row,inhibition at 1 µM,SMILES
1,20%,CC1CN(C(=O)c2ccc(-c3cnc(N)c(OCc4ccc(F)cc4F)c3)cc2)CC(C)N1 (centres unmarked)
2,25%,CC1CN(C(=O)c2ccc(-c3cnc(N)c(OCc4cc(F)ccc4F)c3)cc2)CC(C)N1 (centres unmarked)
3,14%,CC1CN(C(=O)c2ccc(-c3cnc(N)c(OCc4ccc(F)c(F)c4)c3)cc2)CC(C)N1 (centres unmarked)
4,21%,CC1CN(C(=O)c2ccc(-c3cnc(N)c(OCc4ccc(OC(F)(F)F)cc4)c3)cc2)CC(C)N1 (centres unmarked)
5,12%,CC1CN(C(=O)c2ccc(-c3cnc(N)c(OCc4cc(F)cc(F)c4)c3)cc2)CC(C)N1 (centres unmarked)
6,40%,CC1CN(C(=O)c2ccc(-c3cnc(N)c(OCc4cccc(Cl)c4Cl)c3)cc2)CC(C)N1 (centres unmarked)
7,27%,Cc1ccc(COc2cc(-c3ccc(C(=O)N4CC(C)NC(C)C4)cc3)cnc2N)cc1Cl (centres unmarked)
8,8%,CC1CN(C(=O)c2ccc(-c3cnc(N)c(OCc4ccc(C(=O)NCc5cccnc5)cc4)c3)cc2)CC(C)N1 (centres unmarked)
9,19%,CC1CN(C(=O)c2ccc(-c3cnc(N)c(OCc4ccc(C(=O)NC5CCN(Cc6ccccc6)C5)cc4)c3)cc2)CC(C)N1 (centres unmarked)
10,28%,CC1CN(C(=O)c2ccc(-c3cnc(N)c(OCc4cccc(C(=O)Nc5ccc(N6CCCCC6)cc5)c4)c3)cc2)CC(C)N1 (centres unmarked)
11,17%,CC1CN(C(=O)c2ccc(-c3cnc(N)c(OCc4ccc5nc(C(F)(F)F)cc(OC(C)C)c5c4)c3)cc2)CC(C)N1 (centres unmarked)
12,58%,CC1CN(C(=O)c2ccc(-c3cnc(N)c(OCc4ccc5ccccc5c4Br)c3)cc2)CC(C)N1 (centres unmarked)
13,25%,CC1CN(C(=O)c2ccc(-c3cnc(N)c(OCc4cc(C(F)(F)F)ccc4Cl)c3)cc2)CC(C)N1 (centres unmarked)
14,17%,CC1CN(C(=O)c2ccc(-c3cnc(N)c(OCc4ccc(C(F)(F)F)c(F)c4)c3)cc2)CC(C)N1 (centres unmarked)
15,17%,CC1CN(C(=O)c2ccc(-c3cnc(N)c(OCc4cc(F)ccc4C(F)(F)F)c3)cc2)CC(C)N1 (centres unmarked)
16,20%,CC1CN(C(=O)c2ccc(-c3cnc(N)c(OCc4ccccc4OC(F)(F)F)c3)cc2)CC(C)N1 (centres unmarked)
17,12%,CCOC(=O)C1CCN(C(=O)c2ccc(COc3cc(-c4ccc(C(=O)N5CC(C)NC(C)C5)cc4)cnc3N)cc2)CC1 (centres unmarked)
18,14%,CCOC(=O)CCNC(=O)c1cccc(COc2cc(-c3ccc(C(=O)N4CC(C)NC(C)C4)cc3)cnc2N)c1 (centres unmarked)
19,14%,CC1CN(C(=O)c2ccc(-c3cnc(N)c(OCc4ccc(S(=O)(=O)Nc5ccc(F)cc5)cc4)c3)cc2)CC(C)N1 (centres unmarked)
20,17%,CC1CN(C(=O)c2ccc(-c3cnc(N)c(OCc4ccc(-c5ccnc(Br)n5)cc4)c3)cc2)CC(C)N1 (centres unmarked)
21,19%,CC1CN(C(=O)c2ccc(-c3cnc(N)c(OCc4cccc(-c5ccnc(Br)n5)c4)c3)cc2)CC(C)N1 (centres unmarked)
22,16%,CC1CN(C(=O)c2ccc(-c3cnc(N)c(OCc4ccc(S(N)(=O)=O)cc4)c3)cc2)CC(C)N1 (centres unmarked)
23,35%,CC1CN(C(=O)c2ccc(-c3cnc(N)c(OCc4ccc(C(=O)c5ccccc5)cc4)c3)cc2)CC(C)N1 (centres unmarked)
24,25%,Cc1cc(-c2onc(C)c2COc2cc(-c3ccc(C(=O)N4CC(C)NC(C)C4)cc3)cnc2N)no1 (centres unmarked)

row,inhibition at 1 µM,SMILES
1,13%,CC1CN(C(=O)c2ccc(-c3cnc(N)c(OCc4ccc(S(=O)(=O)N5CCOCC5)cc4)c3)cc2)CC(C)N1 (centres unmarked)
2,13%,CC1CN(C(=O)c2ccc(-c3cnc(N)c(OCc4ccc(S(=O)(=O)c5ccc(F)cc5)cc4)c3)cc2)CC(C)N1 (centres unmarked)
3,16%,CC1CN(C(=O)c2ccc(-c3cnc(N)c(OCc4nc5ccccc5n4C)c3)cc2)CC(C)N1 (centres unmarked)
4,15%,CC1CN(C(=O)c2ccc(-c3cnc(N)c(OCc4nc(-c5ccccn5)no4)c3)cc2)CC(C)N1 (centres unmarked)
5,51%,CC1CN(C(=O)c2ccc(-c3cnc(N)c(OCc4c(F)ccc(F)c4Cl)c3)cc2)CC(C)N1 (centres unmarked)
6,37%,Cc1ccc(COc2cc(-c3ccc(C(=O)N4CC(C)NC(C)C4)cc3)cnc2N)c(F)c1F (centres unmarked)
7,35%,Cc1ccc(F)c(COc2cc(-c3ccc(C(=O)N4CC(C)NC(C)C4)cc3)cnc2N)c1F (centres unmarked)
8,16%,Cc1cc(COc2cc(-c3ccc(C(=O)N4CC(C)NC(C)C4)cc3)cnc2N)ccc1F (centres unmarked)
9,28%,Cc1ccc(F)cc1COc1cc(-c2ccc(C(=O)N3CC(C)NC(C)C3)cc2)cnc1N (centres unmarked)
10,21%,CC1CN(C(=O)c2ccc(-c3cnc(N)c(OCc4cccc(Br)c4)c3)cc2)CC(C)N1 (centres unmarked)
11,16%,Cc1onc(-c2ccccc2)c1COc1cc(-c2ccc(C(=O)N3CC(C)NC(C)C3)cc2)cnc1N (centres unmarked)
12,17%,CC1CN(C(=O)c2ccc(-c3cnc(N)c(OCc4cccc5cccnc45)c3)cc2)CC(C)N1 (centres unmarked)
13,18%,CC1CN(C(=O)c2ccc(-c3cnc(N)c(OCc4c(-c5ccccc5)nn(C)c4Cl)c3)cc2)CC(C)N1 (centres unmarked)
14,14%,Cc1ccc(-c2nnc(COc3cc(-c4ccc(C(=O)N5CC(C)NC(C)C5)cc4)cnc3N)o2)cc1 (centres unmarked)
15,16%,CC1CN(C(=O)c2ccc(-c3cnc(N)c(OCc4cc(-c5ccccc5)no4)c3)cc2)CC(C)N1 (centres unmarked)
16,12%,CC1CN(C(=O)c2ccc(-c3cnc(N)c(OCc4nccn4C)c3)cc2)CC(C)N1 (centres unmarked)
17,13%,Cc1nc(COc2cc(-c3ccc(C(=O)N4CC(C)NC(C)C4)cc3)cnc2N)n(C)n1 (centres unmarked)
18,15%,CC1CN(C(=O)c2ccc(-c3cnc(N)c(OCc4nnnn4Cc4ccccc4)c3)cc2)CC(C)N1 (centres unmarked)
19,10%,CC1CN(C(=O)c2ccc(-c3cnc(N)c(OCc4nc5ccc(Cl)cc5[nH]4)c3)cc2)CC(C)N1 (centres unmarked)
20,13%,CC1CN(C(=O)c2ccc(-c3cnc(N)c(OCc4cc5c(C(F)(F)F)nn(C)c5s4)c3)cc2)CC(C)N1 (centres unmarked)
21,13%,CC1CN(C(=O)c2ccc(-c3cnc(N)c(OCc4nc(-c5ccccc5)nn4C)c3)cc2)CC(C)N1 (centres unmarked)
22,14%,CC(C)Cc1noc(COc2cc(-c3ccc(C(=O)N4CC(C)NC(C)C4)cc3)cnc2N)n1 (centres unmarked)
23,29%,CC1CN(C(=O)c2ccc(-c3cnc(N)c(OCc4ccc(Cl)cc4Br)c3)cc2)CC(C)N1 (centres unmarked)
24,13%,CCOC(=O)c1nc(COc2cc(-c3ccc(C(=O)N4CC(C)NC(C)C4)cc3)cnc2N)no1 (centres unmarked)
